Results: ChEMBL document CHEMBL1131977, “Synthesis and in vitro activity of new oxazolidinone antibacterial agents having substituted isoxazoles” (1999)
In brackets after ≈: the same amount, converted by molar mass.

What was measured:
Type in all cases: functional
[1] = test system: Enterococcus faecalis; experiment: In vitro antibacterial activity against Enterococcus faecalis C6291 (E.f.1).
[2] = test system: Staphylococcus aureus; experiment: In vitro antibacterial activity against methicillin-resistant Staphylococcus aureus (MRSA) C6068.
[3] = test system: Staphylococcus aureus; experiment: In vitro antibacterial activity against methicillin-susceptible Staphylococcus aureus (MSSA) C2214.
[4] = test system: Enterococcus faecium; experiment: In vitro antibacterial activity against vancomycin-resistant Enterococcus faecium C6487 (VRE).
[5] = test system: Staphylococcus aureus; experiment: In vitro antibacterial activity against ciprofloxacin-resistant Staphylococcus aureus (CRSA) C6043.
[6] = test system: Streptococcus pyogenes; experiment: In vitro antibacterial activity against Streptococcus pyogenes C6003 (S.p.2).
[7] = test system: Streptococcus pyogenes; experiment: In vitro antibacterial activity against Streptococcus pyogenes ATCC 8668 (S.p.1).
[8] = test system: Enterococcus faecium; experiment: In vitro antibacterial activity against Enterococcus faecium C6301 (E.f.2).
[9] = test system: Staphylococcus aureus; experiment: In vitro antibacterial activity against Staphylococcus aureus (S. a.) ATCC 29213.
[10] = test system: Staphylococcus epidermidis; experiment: In vitro antibacterial activity against Staphylococcus epidermis (S.e.1) […].
[11] = test system: Staphylococcus epidermidis; experiment: In vitro antibacterial activity against Staphylococcus epidermis (S.e.2) C2235.

Compound	MIC [1] [µg/mL]	MIC [2] [µg/mL]	MIC [3] [µg/mL]	MIC [4] [µg/mL]	MIC [5] [µg/mL]	MIC [6] [µg/mL]	MIC [7] [µg/mL]	MIC [8] [µg/mL]	MIC [9] [µg/mL]	MIC [10] [µg/mL]	MIC [11] [µg/mL]
CC(=O)NC[C@H]1CN(c2ccc(N3CCN(C(=O)c4cc(C#N)no4)CC3)c(F)c2)C(=O)O1	2 (≈ 4.38 µM)	1 (≈ 2.19 µM)	2 (≈ 4.38 µM)	1 (≈ 2.19 µM)	2 (≈ 4.38 µM)	0.25 (≈ 0.548 µM)	0.25 (≈ 0.548 µM)	1 (≈ 2.19 µM)	2 (≈ 4.38 µM)	0.5 (≈ 1.1 µM)	0.5 (≈ 1.1 µM)
CC(=O)NC[C@H]1CN(c2ccc(N3CCN(C(=O)c4cc(-c5cnsn5)no4)CC3)c(F)c2)C(=O)O1	2 (≈ 3.88 µM)	1 (≈ 1.94 µM)	4 (≈ 7.76 µM)	1 (≈ 1.94 µM)	2 (≈ 3.88 µM)	0.5 (≈ 0.97 µM)	0.5 (≈ 0.97 µM)	2 (≈ 3.88 µM)	4 (≈ 7.76 µM)	1 (≈ 1.94 µM)	1 (≈ 1.94 µM)
CC(=O)NC[C@H]1CN(c2ccc(N3CCN(C(=O)c4cc(-c5cccs5)no4)CC3)c(F)c2)C(=O)O1	1 (≈ 1.95 µM)	1 (≈ 1.95 µM)	1 (≈ 1.95 µM)	1 (≈ 1.95 µM)	1 (≈ 1.95 µM)	0.5 (≈ 0.974 µM)	0.5 (≈ 0.974 µM)	1 (≈ 1.95 µM)	1 (≈ 1.95 µM)	0.25 (≈ 0.487 µM)	1 (≈ 1.95 µM)
CC(=O)NC[C@H]1CN(c2ccc(N3CCN(C(=O)c4cc(Br)no4)CC3)c(F)c2)C(=O)O1	2 (≈ 3.92 µM)	1 (≈ 1.96 µM)	2 (≈ 3.92 µM)	2 (≈ 3.92 µM)	2 (≈ 3.92 µM)	1 (≈ 1.96 µM)	1 (≈ 1.96 µM)	4 (≈ 7.84 µM)	4 (≈ 7.84 µM)	1 (≈ 1.96 µM)	2 (≈ 3.92 µM)
CC(=O)NC[C@H]1CN(c2ccc(N3CCN(Cc4cc(-c5ccc(Oc6ccccc6)cc5)no4)CC3)c(F)c2)C(=O)O1	4 (≈ 6.83 µM)	4 (≈ 6.83 µM)	8 (≈ 13.7 µM)	4 (≈ 6.83 µM)	8 (≈ 13.7 µM)	1 (≈ 1.71 µM)	1 (≈ 1.71 µM)	4 (≈ 6.83 µM)	8 (≈ 13.7 µM)	2 (≈ 3.42 µM)	4 (≈ 6.83 µM)
COc1cc(CN2CCN(c3ccc(N4C[C@H](CNC(C)=O)OC4=O)cc3F)CC2)on1	8 (≈ 17.9 µM)	4 (≈ 8.94 µM)	8 (≈ 17.9 µM)	4 (≈ 8.94 µM)	8 (≈ 17.9 µM)	1 (≈ 2.23 µM)	1 (≈ 2.23 µM)	4 (≈ 8.94 µM)	8 (≈ 17.9 µM)	2 (≈ 4.47 µM)	4 (≈ 8.94 µM)
CC(=O)NC[C@H]1CN(c2ccc(N3CCN(C(=O)c4cccs4)CC3)c(F)c2)C(=O)O1	2 (≈ 4.48 µM)	1 (≈ 2.24 µM)	2 (≈ 4.48 µM)	2 (≈ 4.48 µM)	2 (≈ 4.48 µM)	1 (≈ 2.24 µM)	1 (≈ 2.24 µM)	2 (≈ 4.48 µM)	2 (≈ 4.48 µM)	0.5 (≈ 1.12 µM)	1 (≈ 2.24 µM)
CC(=O)NC[C@H]1CN(c2ccc(N3CCN(C(=O)c4cc(C)no4)CC3)c(F)c2)C(=O)O1	4 (≈ 8.98 µM)	2 (≈ 4.49 µM)	8 (≈ 18 µM)	2 (≈ 4.49 µM)	4 (≈ 8.98 µM)	0.5 (≈ 1.12 µM)	0.5 (≈ 1.12 µM)	2 (≈ 4.49 µM)	4 (≈ 8.98 µM)	0.5 (≈ 1.12 µM)	1 (≈ 2.24 µM)
COc1cc(C(=O)N2CCN(c3ccc(N4C[C@H](CNC(C)=O)OC4=O)cc3F)CC2)on1	2 (≈ 4.33 µM)	2 (≈ 4.33 µM)	4 (≈ 8.67 µM)	2 (≈ 4.33 µM)	4 (≈ 8.67 µM)	0.5 (≈ 1.08 µM)	0.5 (≈ 1.08 µM)	2 (≈ 4.33 µM)	4 (≈ 8.67 µM)	0.5 (≈ 1.08 µM)	0.5 (≈ 1.08 µM)
